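Compound exposure: 48 hours, 5 concentrations, 96-well plates. The concentration for full growth arrest is given as TGI.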
Experiments:
Test in all cases: growth of human tumour cells (NCI), 48 h
[1] = system: OVCAR-8 ovarian
[2] = system: UO-31 renal
[3] = system: A498 renal
[4] = system: NCI-H522 lung
[5] = system: BT-549 breast
[6] = system: MDA-N
[7] = system: HCC-2998 colon
[8] = system: SW-620 colon
[9] = system: CAKI-1 renal
[10] = system: 786-0 renal
[11] = system: SK-MEL-5 melanoma
[12] = system: DU-145 prostate
[13] = system: NCI/ADR-RES ovarian
[14] = system: MDA-MB-435
[15] = system: HS 578T breast
[16] = system: RPMI-8226 leukemia
[17] = system: T-47D breast
[18] = system: HL-60(TB) leukemia
[19] = system: MALME-3M melanoma
[20] = system: MCF7 breast
[21] = system: SN12C renal
[22] = system: U251 CNS
[23] = system: CCRF-CEM leukemia
[24] = system: HOP-62 NSCLC
[25] = system: IGROV1 ovarian
[26] = system: A549 NSCLC
[27] = system: KM12 colon
[28] = system: SNB-19 CNS
[29] = system: UACC-257 melanoma
[30] = system: HCT-116 colon
[31] = system: SK-MEL-2 melanoma
[32] = system: OVCAR-5 ovarian
[33] = system: MDA-MB-231 breast
[34] = system: SR leukemia
[35] = system: OVCAR-3 ovarian
[36] = system: HT29 colon
[37] = system: M14 melanoma
[38] = system: SF-268 CNS
[39] = system: SF-295 CNS
[40] = system: LOX IMVI melanoma
[41] = system: SF-539 CNS
[42] = system: NCI-H23 lung
[43] = system: HCT-15 colon
[44] = system: K-562 leukemia
[45] = system: EKVX NSCLC
[46] = system: SK-MEL-28 melanoma
[47] = system: NCI-H226 lung
[48] = system: NCI-H460 lung
[49] = system: COLO 205 colon
[50] = system: UACC-62 melanoma
[51] = system: TK-10 renal
[52] = system: MOLT-4 leukemia
[53] = system: PC-3 prostate
[54] = system: OVCAR-4 ovarian
[55] = system: ACHN renal
[56] = system: SK-OV-3 ovarian
[57] = system: SNB-75 CNS
[58] = system: HOP-92 NSCLC
[59] = system: RXF 393 renal

Measured: TGI

CC(=O)Nn1cnc(C(=N)C#N)c1N
> 100 µM: [1] | [2] | [3] | [4] | [5] | [6] | [7] | [8] | [9] | [10] | [11] | [12] | [13] | [14] | [15] | [16] | [17] | [18] | [19] | [20] | [21] | [22] | [23] | [24] | [25] | [26] | [27] | [28] | [29] | [30] | [31] | [32] | [33] | [34] | [35] | [36] | [37] | [38] | [39] | [40] | [41] | [42] | [43] | [44] | [45] | [46] | [47] | [48] | [49] | [50] | [51] | [52] | [53] | [54] | [55] | [56] | [57]

Cn1c2ccccc2c2c3c(c4c5ccccc5n(C5OC(CO)C(O)C(O)C5O)c4c21)C(=O)OC3=O (stereo not given)
> 100 µM: [1] | [2] | [3] | [4] | [5] | [6] | [7] | [8] | [9] | [58] | [10] | [11] | [12] | [13] | [14] | [15] | [16] | [17] | [19] | [20] | [21] | [22] | [23] | [24] | [25] | [26] | [27] | [28] | [29] | [30] | [31] | [59] | [32] | [33] | [34] | [35] | [36] | [37] | [38] | [39] | [40] | [41] | [42] | [43] | [44] | [45] | [46] | [47] | [48] | [49] | [50] | [51] | [52] | [53] | [54] | [55] | [56] | [57]

C=CCc1cccc2cc(C(=O)Nc3ccc(C)cc3)c(=N)oc12
> 100 µM: [1] | [3] | [4] | [5] | [6] | [7] | [8] | [9] | [58] | [10] | [11] | [12] | [13] | [14] | [15] | [16] | [17] | [18] | [19] | [20] | [21] | [22] | [23] | [24] | [25] | [26] | [27] | [28] | [29] | [30] | [31] | [59] | [32] | [33] | [34] | [35] | [36] | [37] | [38] | [40] | [42] | [43] | [44] | [45] | [46] | [47] | [48] | [49] | [50] | [52] | [53] | [54] | [55] | [56] | [57]
